Results: BindingDB's records for patent WO2022098807 (Merck Sharp &Amp, 2022)

Biological target: Mitogen-activated protein kinase kinase kinase kinase 1 (Homo sapiens, UniProt Q92918)
Experiment: HPK1-SLP76 TR-FRET ASSAY

Chain of Mitogen-activated protein kinase kinase kinase kinase 1 (Q92918 whole entry): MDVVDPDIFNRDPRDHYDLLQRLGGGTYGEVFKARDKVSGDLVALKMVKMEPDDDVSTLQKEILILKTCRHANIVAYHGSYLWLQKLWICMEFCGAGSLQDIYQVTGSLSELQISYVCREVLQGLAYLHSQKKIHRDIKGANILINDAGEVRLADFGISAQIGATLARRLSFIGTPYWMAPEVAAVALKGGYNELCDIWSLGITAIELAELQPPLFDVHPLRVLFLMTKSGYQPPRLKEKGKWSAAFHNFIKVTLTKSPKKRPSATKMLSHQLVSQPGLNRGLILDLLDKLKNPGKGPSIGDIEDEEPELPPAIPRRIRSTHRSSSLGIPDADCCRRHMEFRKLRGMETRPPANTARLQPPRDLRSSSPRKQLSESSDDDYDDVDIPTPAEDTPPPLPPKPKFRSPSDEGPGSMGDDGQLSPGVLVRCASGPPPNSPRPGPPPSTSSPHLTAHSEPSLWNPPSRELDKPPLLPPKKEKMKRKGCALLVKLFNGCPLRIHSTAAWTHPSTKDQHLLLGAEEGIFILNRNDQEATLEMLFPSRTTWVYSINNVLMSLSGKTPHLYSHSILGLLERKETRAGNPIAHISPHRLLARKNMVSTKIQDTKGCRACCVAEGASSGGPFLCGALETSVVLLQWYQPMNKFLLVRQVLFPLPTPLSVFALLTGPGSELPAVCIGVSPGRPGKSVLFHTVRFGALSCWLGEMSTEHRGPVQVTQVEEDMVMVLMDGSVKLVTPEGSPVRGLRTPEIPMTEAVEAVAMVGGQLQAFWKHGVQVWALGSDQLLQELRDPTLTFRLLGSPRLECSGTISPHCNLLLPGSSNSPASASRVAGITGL

| IC50 [nM] | SMILES |
| --- | --- |
| 0.22 | Cc1c(-c2ccc3cnc(Nc4cnn(C5CC6(C5)CC(C5(C)COC5)C6)c4)nc3c2)cnc2c1NCCO2 (stereo not given) [WO2022098807, Example 1-2] |
| 0.67 | Cc1c(-c2ccc3cnc(Nc4cc5n(n4)CCN(C(C)(C)O)C(=O)C5)nc3c2)cnc2c1NCCO2 [WO2022098807, Example 1-8] |
| 0.09 | Cc1c(-c2cc3nc(Nc4cnn(C5(C)CC5)c4)ncc3c(N)c2F)cnc2c1NCCO2 [WO2022098807, Example 2-8] |
| 0.07 | Cc1c(-c2cc3nc(Nc4cnn(C5CCNCC5)c4)ncc3c(N)c2F)cnc2c1NCCO2 [WO2022098807, Example 2-11] |
| 0.15 | Cc1c(-c2cc3nc(Nc4cnn([C@@H]5CCN(C)C5=O)c4)ncc3c(N)c2F)cnc2c1NCCO2 [WO2022098807, Example 2-19] |
| 0.06 | Cc1c(-c2cc3nc(Nc4cc5n(n4)CCN(C(C)C)C(=O)C5)ncc3c(N)c2F)cnc2c1NCCO2 [WO2022098807, Example 2-20] |
| 0.35 | Cc1c(-c2cc3nc(Nc4cnn([C@H]5CCN(C)C5=O)c4)ncc3c(N)c2F)cnc2c1NCCO2 [WO2022098807, Example 2-21] |
| 0.08 | CCn1cc(Nc2ncc3c(N)c(F)c(-c4cnc5c(c4C)NCCO5)cc3n2)cn1 [WO2022098807, Example 2-22] |
| 0.09 | CNC(=O)C12CC(n3cc(Nc4ncc5c(N)c(F)c(-c6cnc7c(c6C)NCCO7)cc5n4)cn3)(C1)C2 [WO2022098807, Example 2-28] |
| 0.05 | Cc1c(-c2cc3nc(Nc4cnn(C)c4C)ncc3c(N)c2F)cnc2c1NCCO2 [WO2022098807, Example 2-30] |
| 0.05 | Cc1c(-c2cc3nc(Nc4cnn(CC(F)F)c4)ncc3c(N)c2F)cnc2c1NCCO2 [WO2022098807, Example 2-32] |
| 0.06 | Cc1nn(C)cc1Nc1ncc2c(N)c(F)c(-c3cnc4c(c3C)NCCO4)cc2n1 [WO2022098807, Example 2-34] |
| 0.05 | Cc1c(-c2cc3nc(Nc4cnn5c4CCC5)ncc3c(N)c2F)cnc2c1NCCO2 [WO2022098807, Example 2-35] |
| 0.07 | Cc1cnsc1Nc1ncc2c(N)c(F)c(-c3cnc4c(c3C)NCCO4)cc2n1 [WO2022098807, Example 2-37] |
| 0.05 | Cc1c(-c2cc3nc(Nc4cnn(C5COC5)c4)ncc3c(N)c2F)cnc2c1NCCO2 [WO2022098807, Example 2-39] |
| 0.05 | Cc1c(-c2c(F)c(N)c3cnc(Nc4cnn(C5CCN(C)CC5)c4)nc3c2Cl)cnc2c1NCCO2 [WO2022098807, Example 2-44] |
| 0.18 | Cc1c(-c2c(F)c(N)c3cnc(Nc4cnn(C5CC5)c4C)nc3c2Cl)cnc2c1NCCO2 [WO2022098807, Example 2-45] |
| 0.05 | Cc1c(-c2cc3nc(Nc4cnn(C56CC(C(C)(C)O)(C5)C6)c4)ncc3c(N)c2F)cnc2c1NCCO2 [WO2022098807, Example 2-46] |
| 0.18 | Cc1c(-c2c(F)c(N)c3cnc(Nc4cnn([C@H]5CCN(C)C5)c4)nc3c2Cl)cnc2c1NCCO2 [WO2022098807, Example 2-47] |
| 0.17 | Cc1c(-c2c(F)c(N)c3cnc(Nc4cnn([C@@H]5CCN(C)C5)c4)nc3c2Cl)cnc2c1NCCO2 [WO2022098807, Example 2-48] |
